Laboratory results from patent EP0251126B1, “1,7-substituted heptyne-2-ones” (priority 1986, dated 1988).

Experiments:
[1] = target: postsynaptic muscarinic cholinergic receptors on bladder detrusor muscle (Cavia porcellus, UniProt Q8VH26); format: biochemical, guinea-pigs; details: guinea pig bladder strips, carbachol as agonist
Protocol: (§1) Serial dilutions (1:10) in saline or water are made from the stock solution.
(§2) Serial dilutions (1:10) in saline or water are made from the stock solution. […] Serial dilutions (1:10) in water are made from the stock solution. Other solvents may be used when appropriate and will be specifically described in the experimental procedure. Appropriate volumes are then added to the baths in order to obtain the desired bath concentrations.
(§3) With each concentration step, the tissue contracts isometrically. The next concentration is added only after the preceding contraction has reached a steady value.
Three or four different concentrations of antagonist are studied in the same preparations.

[2] = target: postsynaptic muscarinic cholinergic receptors on intestinal (ileal) longitudinal smooth muscle (Cavia porcellus, UniProt Q8VH26); format: biochemical, guinea-pigs; details: guinea pig ileum longitudinal muscle, carbachol as agonist
Protocol: The cavity is opened and the small intestine is removed, with about 10 cm of the terminal ileum being discarded. […] The segments are preferentially taken from the aboral end of the ileum.
The preparations are allowed to recover for an additional 12 minutes before being used in experiments.
as §1, §2, §3
Three or four different concentrations of antagonist are studied in the same preparations. Responses are expressed relative to the maximum contraction elicited by carbachol in the absence of antagonist.

[3] = system: bladder contraction strength (PvesP); format: in vivo, Guinea pigs; details: T-1/2 of the compound compared with T-1/2 of oxybutynin
Description: To assess test compounds with a more intact model system, a method which more closely mimics the natural slow filling of the bladder is used.
This clinical CMG is produced by catheterizing the bladder so it may be filled, emptied and refilled with fluid while simultaneously measuring the internal bladder pressure (Pves). […] This allows the bladder to reach maximum capacity/pressure before sensory systems initiate the normal urge and micturition reflex patterns. We use a modification of this clinical test to determine duration of action of test compounds by repeated filling of the bladder following i.v. administration of the test compound. Peak pressure above the threshold pressure is the primary measure of action which can be inhibited by the test compounds and can be used to determine potency and duration of action in this anesthetized Guinea pig model. […]
Test drugs and reference compounds are normally prepared as a solution in normal saline, acidified or made basic as needed to get the compound into solution at the desired concentration. Drugs are delivered at selected mg/kg (calculated as free base) doses i.v. in a volume of approximately 0.5 to 0.8 ml. […]

Chain of postsynaptic muscarinic cholinergic receptors on bladder detrusor muscle (Q8VH26 entry or part of it): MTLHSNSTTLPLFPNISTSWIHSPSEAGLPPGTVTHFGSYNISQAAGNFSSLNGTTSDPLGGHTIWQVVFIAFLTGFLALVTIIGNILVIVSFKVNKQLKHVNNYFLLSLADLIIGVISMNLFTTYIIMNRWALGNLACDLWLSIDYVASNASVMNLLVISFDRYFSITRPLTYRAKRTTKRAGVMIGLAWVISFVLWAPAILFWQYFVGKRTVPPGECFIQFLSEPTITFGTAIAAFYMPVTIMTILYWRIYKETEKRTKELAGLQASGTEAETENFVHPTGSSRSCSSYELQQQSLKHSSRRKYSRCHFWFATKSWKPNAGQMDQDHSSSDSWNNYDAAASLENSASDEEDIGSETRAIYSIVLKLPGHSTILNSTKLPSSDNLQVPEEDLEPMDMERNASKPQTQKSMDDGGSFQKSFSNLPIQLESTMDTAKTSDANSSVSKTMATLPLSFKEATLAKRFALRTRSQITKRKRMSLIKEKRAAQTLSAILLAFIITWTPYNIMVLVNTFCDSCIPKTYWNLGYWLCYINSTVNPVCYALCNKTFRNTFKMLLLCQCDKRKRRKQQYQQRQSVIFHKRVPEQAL
Chain of postsynaptic muscarinic cholinergic receptors on intestinal (ileal) longitudinal smooth muscle (Q8VH26 entry or part of it): as above

Row | Compound | Ileum Kb [2] | Bladder Kb [1] | half-lives of PvesP depression relative to oxybutynin [3] | other results
1 | 1-(6-Diethylaminohex-4-yn-2-one)-1-hydroxy-1,2,3,4-tetrahydronaphthalene N-cyclohexylsulfamate hydrate [Compound 11] |  |  |  | Kb [1]: 512 nM; Kb [2]: > 1000 nM
2 | CCN(CC)CC#CCCC(=O)C(C)(O)c1ccccc1.O=C(O)C(=O)O (centres unmarked) [Compound 7, 2-Hydroxy-2-phenyl-8-(N,N-diethylamino)oct-6-yn-3-one oxalate] | NC 10µM |  |  | 
3 | CCN(CC)CC#CCC(=O)CC1(O)CCc2ccccc21.CCN(CC)CC#CCC(=O)CC1(O)CCc2ccccc21.O.O=C(O)C(=O)O.O=C(O)C(=O)O (centres unmarked) [Compound 21, 1-(6-N,N-Diethylaminohex-4-yn-2-one)-1-hydroxyindan oxalate semihydrate] | N.E. | N.E. |  | 
4 | CCN(CC)CC#CCCC1(C(O)(c2ccccc2)C2CCCCC2)SCCCS1 (centres unmarked) [Compound 2, 1-Cyclohexyl-1-phenyl-1-hydroxy-7-diethylaminohept-5-yn-2-one bis (1,3-propylene)dithioketal hemioxalate] |  | enhance |  | 
5 | CCNCC#CCCC(=O)C(O)(c1ccccc1)C1CCCCC1 (centres unmarked) [Compound 10, 1-Cyclohexyl-1-hydroxy-phenyl-7-ethylamino-hept-5-yn-2-one hemifumarate, hydrate] |  |  | 1.78 times longer | 
6 | CN(C)CC#CCCC(=O)C(O)(c1ccccc1)C1CCCCC1 (centres unmarked) [Compound 18, 1-Cyclohexyl-1-hydroxy-1-phenyl-7-dimethylaminohept-5-yn-2-one] |  |  | 2.65 times longer | 
